Results published in patent US8088757B2, “Betulinol derivatives as anti-cancer agents” (priority 2004, dated 2012).
Where two headings read alike, the source gives them in different places.

Legend:
[1] = 1.34 mg in 31 μL ethanol + 700 μL human serum
LNCaP = experiment: MTT cytotoxicity assay, LNCaP prostate cancer cells; type: cell-based, human; settings: Homo sapiens, read-out: Growth Inhibition %; for inhibition at 25 µM: 2.5 × 10^−5 M; for inhibition at 2.5 µM: 2.5 × 10^−6 M; for inhibition at 0.25 µM: 2.5 × 10^−7 M
Protocol: The human prostate cancer LNCaP, PC-3, and DU-145 cell lines, as well as human fibroblast cell line, were obtained from the American Type Culture Collection (“ATCC”) and maintained in RPMI-1640, F-12k, and MEM mediums, respectively, supplemented with 10% FBS. Cell lines were maintained at 37° C. under a humidified atmosphere and 5% CO2 for testing of the cytotoxicity of betulinol derivatives. The cytotoxicity assay was performed using MTT assay according to the instructions of ATCC protocol. Cells 1×10^5 in 0.1 ml/well were plated in 96-well culture plates (Costar) and incubated with a different dilution of betulinol derivatives for 24, 48, and 72 hours. Ten μl of 3-[4,5-dimethylthiazol-2-yl]-2,5 diphenyl tetrazolium bromide was added into each well at the end of each incubation period. The reaction product, formazan, was dissolved in the detergent, and the absorbance was read at 540 nm (Ref).
However, these compounds were not tested on prostate cancer LNCaP cell line by NCI. […] The anti-tumor activity of the compounds was determined at three doses and the total growth inhibition kill effect as pertinent of the control at 24, 48, and 72 hours as presented in Table 11.

LNCaP xenografts = system: LNCaP xenografts; parameters: species or system athymic mice; settings: mouse, in vivo
Protocol: All the animal studies were performed according to the guidelines and approval of the Institutional Animal Care and Use Committee and Research Animal Resource Center of Weill Medical College of Cornell University, New York. Twelve mice of 13 weeks of age were purchased from The National Cancer Institute (NCI) and were housed in a pathogen-free environment under controlled conditions of light and humidity and with free access to food and water. LNCaP cells were grown in RPMI-1640 with 10% FBS until 80-90% confluent. Cells were scraped into PBS and collected by centrifugation. The LNCAP cell pellets were suspended in Matrigel (Ref) at 2.5×10^7 cells/ml. Mice were injected subcutaneously (“s.c.”) with 200 μl (5×10^6 cells) of the cell suspension at one site on the flank. Visible tumor grew after 7-8 days following implantation and mice were divided into three groups of four mice each.
Mice received s.c. injection daily for ten days. […] Tumors were measured daily with calipers, and tumor volumes were calculated by the formula: π/6(l×w×h). Animals were also weighed daily and monitored for general health status and vital signs of possible toxicity due to treatment. At the end of the treatment period, the animals were sacrificed and tumors were excised, weighed and prepared for immunohistochemical and histological studies. […]

[2] = Solubility in DMSO diluted with culture medium (GC standard curve); settings: for State of solution: 0.5 mg/mL BA
Protocol: The residue was dissolved in chloroform analyzed on GC.
Ethyl ether was then evaporated. […] Concentration of drug in the above solutions was analyzed by GC and determined from the standard solubility curve.

[3] = Solubilization in PBS containing human γ-globulin, human albumin and ethanol; settings: 1 × 10^−3 mol/L
Description: Human γ-Globulin and human albumin are two major biocompatible components in human serum.

184B5/HER = experiment: In vitro cytotoxicity, Breast (1), 184B5/HER; type: cell-based; settings: 1 × 10^−4 M

In the case of `C=C(C)C1CCC2(C(=O)O)CC[C@]3(C)[C@H](CC[C@@H]4[C@@]5(C)CCC(=O)C(C)(C)[C@@H]5CC[C@]43C)C12` (stereo partly drawn) [Compound 4, Betulonic Acid], the Observation [1] is reported as “Clear Solution”, the inhibition at 25 µM (LNCaP; 24 hours) is reported as 11.4% and the inhibition at 2.5 µM (LNCaP; 24 hours) is reported as 14.7%. The inhibition at 0.25 µM (LNCaP; 24 hours) was 3.01%, the inhibition at 25 µM (LNCaP; 48 hours) was 32.6% and the inhibition at 2.5 µM (LNCaP; 48 hours) was 43%. For the same compound, the inhibition at 0.25 µM (LNCaP; 48 hours) was 28.3%, the “general health and vital signs during treatment” value (LNCaP xenografts) was “no adverse effects on vital signs” and the State of solution ([2]; 3% DMSO in culture medium) was “Suspension”. The State of solution ([2]; 9% DMSO in culture medium) was “Suspension”, the State of solution ([2]; 14% DMSO in culture medium) was “Cloudy” and the State of solution ([2]; 20% DMSO in culture medium) was “clear solution”. For the same compound, the State of solution ([2]; 20% DMSO in culture medium, listed as BA) was “Clear”, the “amount of betulonic acid dissolved” value ([2]; out of 3 mg, 1% DMSO in culture medium containing 10% FBS, supernatant after centrifugation) was 0.4 mg and the Observation ([3]; ethanol 220 μL, γ-globulin 1.48 mL, albumin 0.49 mL) was “Cloudy”. The Observation ([3]; ethanol 280 μL, γ-globulin 0 mL, albumin 2.50 mL) was “Complete”, the Observation ([3]; ethanol 280 μL, γ-globulin (27 mg/mL in PBS) 2.50 mL, albumin (42 mg/mL in PBS) 0 mL) was “Suspension” and the Observation ([3]; ethanol 308 μL, γ-globulin 0.69 mL, albumin 2.07 mL) was “Almost Clear”. The Observation ([3]; ethanol 330 μL, γ-globulin 1.48 mL, albumin 1.48 mL) was “Little Cloudy”, the Observation ([3]; ethanol 352 μL, γ-globulin 0.32 mL, albumin 2.85 mL) was “Clear” and the “Percent Killed” value (184B5/HER) was “Toxic”.
